According to PubChem BioAssay AID2337 (Sanford-Burnham Center for Chemical Genomics, 2010):

Test system: TNFa-induced NF-kB reporter cells, inhibition
Assay: TNFa-triggered NF-kB activation inhibitors, SAR follow-up, cell-based, revised (AID 2337)

Row | SMILES | IC50
1 | O=C(Nc1nc2c(F)cc(F)cc2s1)c1ccc([N+](=O)[O-])o1 | 19.7 µM
2 | CC1Sc2ccc(S(=O)(=O)N3CCC(C(=O)Nc4ccc(Cl)cc4)CC3)cc2NC1=O (configuration not stated) | 3.15 µM
